Measurements taken from patent publication US20250324971A1, “HERBICIDAL DERIVATIVES” (SYNGENTA CROP PROTECTION AG, priority 2022, published 2025).

Assays:
Format in all cases: in vivo
[1] = test system: Setaria faberi (SETFA); test: Pre-Emergence Test (herbicidal, glasshouse pots); conditions: rate 250 g/ha, evaluated after 13 days, five-point scale
[2] = test system: Ipomoea hederacea (IPOHE); test: Pre-Emergence Test (herbicidal, glasshouse pots); conditions: rate 250 g/ha, evaluated after 13 days, five-point scale
[3] = test system: Echinochloa crus-galli (ECHCG); test: Pre-Emergence Test (herbicidal, glasshouse pots); conditions: rate 250 g/ha, evaluated after 13 days, five-point scale
[4] = test system: Amaranthus retoflexus (AMARE); test: Pre-Emergence Test (herbicidal, glasshouse pots); conditions: rate 250 g/ha, evaluated after 13 days, five-point scale
[5] = test system: Zea mays (ZEAMX); test: Pre-Emergence Test (herbicidal, glasshouse pots); conditions: rate 250 g/ha, evaluated after 13 days, five-point scale
[6] = test system: Amaranthus palmeri (AMAPA); test: Pre-Emergence Test (herbicidal, glasshouse pots); conditions: rate 250 g/ha, evaluated after 13 days, five-point scale
[7] = test system: Amaranthus palmeri (AMAPA); test: Post-Emergence Test (herbicidal, glasshouse pots); conditions: rate 250 g/ha; evaluated after 13 days
Summary of the method: (§1)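 Seeds were sown in standard soil in pots, sprayed at the stated g/ha with an acetone/water (50:50) solution containing 0.5% Tween 20, and kept in a glasshouse (24° C./16° C. day/night, 14 hours light, 65% humidity). Percentage plant damage was scored 13 days later on a five-point scale.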

[8] = test system: Amaranthus retoflexus (AMARE); test: Post-Emergence Test (herbicidal, glasshouse pots); conditions: rate 250 g/ha; evaluated after 13 days
Summary of the method: as §1

[9] = test system: Echinochloa crus-galli (ECHCG); test: Post-Emergence Test (herbicidal, glasshouse pots); conditions: rate 250 g/ha; evaluated after 13 days
Summary of the method: as §1

[10] = test system: Ipomoea hederacea (IPOHE); test: Post-Emergence Test (herbicidal, glasshouse pots); conditions: rate 250 g/ha; evaluated after 13 days
Summary of the method: as §1

[11] = test system: Setaria faberi (SETFA); test: Post-Emergence Test (herbicidal, glasshouse pots); conditions: rate 250 g/ha; evaluated after 13 days
Summary of the method: as §1

[12] = test system: Zea mays (ZEAMX); test: Post-Emergence Test (herbicidal, glasshouse pots); conditions: rate 250 g/ha; evaluated after 13 days
Summary of the method: as §1

SMILES | percentage damage caused to the plant, SETFA [1] | percentage damage caused to the plant, IPHOE [2] | percentage damage caused to the plant, ECHCG [3] | percentage damage caused to the plant, AMARE [4] | percentage damage caused to the plant, ZEAMX [5] | percentage damage caused to the plant, AMAPA [6] | Post-Emergence Test AMAPA percentage damage (five-point scale) [7] | Post-Emergence Test AMARE percentage damage (five-point scale) [8] | Post-Emergence Test ECHCG percentage damage (five-point scale) [9] | Post-Emergence Test IPHOE percentage damage (five-point scale) [10] | Post-Emergence Test SETFA percentage damage (five-point scale) [11] | Post-Emergence Test ZEAMX percentage damage (five-point scale) [12]
CCn1cc(Oc2cc(=O)c(C(=O)O)c(-c3ccc(Cl)c(Cl)c3)n2CC)cn1 [Compound 59, 2-(3,4-dichlorophenyl)-1-ethyl-6-(1-ethylpyrazol-4-yl)oxy-4-oxo-pyridine-3-carboxylic acid] | 5 (5=81-100%) | 4 (4=61-80%) | 4 (4=61-80%) | 2 (2=21-40%) | 3 (3=41-60%) | 1 (1=0-20%) | 3 (3=41-60%) | 4 (4=61-80%) | 3 (3=41-60%) | 4 (4=61-80%) | 3 (3=41-60%) | 4 (4=61-80%)
CCn1c(Oc2cc(Cl)n(C)n2)cc(=O)c(C(=O)O)c1-c1ccc(Cl)c(Cl)c1 [Compound 60, 6-(5-chloro-1-methyl-pyrazol-3-yl)oxy-2-(3,4-dichlorophenyl)-1-ethyl-4-oxo-pyridine-3-carboxylic acid] | 3 (3=41-60%) | 4 (4=61-80%) | 1 (1=0-20%) | 2 (2=21-40%) | 0 | 0 | 1 (1=0-20%) | 4 (4=61-80%) | 1 (1=0-20%) | 4 (4=61-80%) | 1 (1=0-20%) | 3 (3=41-60%)
C/C=C(\C)COc1cc(=O)c(C(=O)O)c(-c2ccc(Cl)c(Cl)c2)n1CC [Compound 63, 2-(3,4-dichlorophenyl)-1-ethyl-6-[(E)-2-methylbut-2-enoxy]-4-oxo-pyridine-3-carboxylic acid] | 0 | 2 (2=21-40%) | 0 | 1 (1=0-20%) | 0 | 0 | 1 (1=0-20%) | 2 (2=21-40%) | 1 (1=0-20%) | 2 (2=21-40%) | 0 | 1 (1=0-20%)
CCn1c(Oc2ccc(C)c(F)c2)cc(=O)c(C(=O)O)c1-c1ccc(C#N)c(Cl)c1 [Compound 73, 2-(3-chloro-4-cyano-phenyl)-1-ethyl-6-(3-fluoro-4-methyl-phenoxy)-4-oxo-pyridine-3-carboxylic acid] | 5 (5=81-100%) | 4 (4=61-80%) | 4 (4=61-80%) | 1 (1=0-20%) | 2 (2=21-40%) | 1 (1=0-20%) | 1 (1=0-20%) | 1 (1=0-20%) | 4 (4=61-80%) | 4 (4=61-80%) | 3 (3=41-60%) | 4 (4=61-80%)
CCn1c(Oc2ccc(F)c(F)c2)cc(=O)c(C(=O)O)c1-c1ccc(C#N)c(Cl)c1 [Compound 76] | 5 (5=81-100%) | 1 (1=0-20%) | 4 (4=61-80%) | 2 (2=21-40%) | 5 (5=81-100%) | 2 (2=21-40%) | 3 (3=41-60%) | 4 (4=61-80%) | 3 (3=41-60%) | 4 (4=61-80%) | 4 (4=61-80%) | 4 (4=61-80%)
